In the CheMixHub viscosity set:
Where “and” joins values, the source holds several entries; their conditions need not be identical. Equal entries are not always repeated.

Columns and labels:
[1] = xn = mol fraction of the nth substance listed

CCOC(=O)CCCBr
Conditions	viscosity [mPa·s]
303.15 K, 101 kPa	1.826

CCCCCCCC(=O)[O-].c1c[nH+]c[nH]1
101.3 kPa
Conditions	viscosity [mPa·s]
293.15 K	88.48
298.15 K	71.27
303.15 K	56.48
308.15 K	45.3
313.15 K	36.92
318.15 K	30.56
323.15 K	25.33

CCCBr
101 kPa
Conditions	viscosity [mPa·s]
293.15 K	0.531
303.15 K	0.486
308.15 K	0.436
313.15 K	0.448
323.15 K	0.415

Nc1ccccc1 + CCCCCCCO
viscosity [mPa·s], [1], 100 kPa
Conditions	x1 = 0.0821	x1 = 0.1633	x1 = 0.2429	x1 = 0.3578	x1 = 0.4421	x1 = 0.5517	x1 = 0.6514	x1 = 0.7434	x1 = 0.8522	x1 = 0.9421
293.15 K	6.21	5.64	5.21	4.74	4.45	4.11	3.94	3.86	3.86	4.1
303.15 K	4.48	4.11	3.82	3.46	3.23	2.99	2.86	2.79	2.82	2.97
313.15 K	3.31	3.05	2.85	2.61	2.46	2.3	2.22	2.19	2.22	2.34
323.15 K	2.51	2.36	2.2	2.01	1.91	1.8	1.75	1.73	1.75	1.84

Oc1ccc2ccccc2c1 + CCCCCOC(C)=O
Conditions	viscosity [mPa·s]
[1], 298.15 K, 101 kPa, x2 = 0.5	1.598

O=S(=O)([O-])NC1CCCCC1.[Li+] + O
viscosity [mPa·s], [1], 101 kPa
Conditions	x1 = 0.002028	x1 = 0.002453	x1 = 0.00294	x1 = 0.003377	x1 = 0.003805	x1 = 0.004126	x1 = 0.00489
293.15 K	1.078	1.095	1.115	1.133	1.151	1.164	1.197
298.15 K	0.956	0.9707	0.9874	1.002	1.018	1.029	1.058
303.15 K	0.8547	0.8675	0.8819	0.8949	0.9081	0.9174	0.9409
313.15 K	0.6978	0.7075	0.7186	0.7288	0.739	0.7458	0.7652
323.15 K	0.5823	0.5898	0.5985	0.6067	0.6147	0.6202	0.6355

Nc1ccccc1 + Cc1cccc(C)c1
[1], 303 K, 101.33 kPa
Conditions	viscosity [mPa·s]
x1 = 0.1	0.815
x1 = 0.2	1.025
x1 = 0.3	1.316
x1 = 0.4	1.708
x1 = 0.5	2.076
x1 = 0.6	2.225
x1 = 0.7	2.432
x1 = 0.8	2.675
x1 = 0.9	2.875

CCNCC + O=C1CCCCC1
[1], 298.15 K, 101 kPa
Conditions	viscosity [mPa·s]
x2 = 0.076	0.296
x2 = 0.157	0.338
x2 = 0.2421	0.415
x2 = 0.3319	0.502
x2 = 0.427	0.639
x2 = 0.5278	0.79
x2 = 0.6349	0.97
x2 = 0.7488	1.224
x2 = 0.8702	1.54

CCC(O)CO (stereo unspecified) + CN1CCCC1=O
[1]
Conditions	viscosity [mPa·s]
298.15 K, 101.33 kPa, x2 = 0.0654	38.07
298.15 K, 101.33 kPa, x2 = 0.1029	31.55
298.15 K, 101.33 kPa, x2 = 0.2083	19.25
298.15 K, 101.33 kPa, x2 = 0.3075	12.65
298.15 K, 101.33 kPa, x2 = 0.3987	8.95
298.15 K, 101.33 kPa, x2 = 0.4992	6.384
298.15 K, 101.33 kPa, x2 = 0.5997	4.714
298.15 K, 101.33 kPa, x2 = 0.6958	3.61
298.15 K, 101.33 kPa, x2 = 0.8118	2.663
298.15 K, 101.33 kPa, x2 = 0.9111	2.083
298.15 K, 101.33 kPa, x2 = 0.9632	1.837
308.15 K, 101 kPa, x1 = 0.0282	1.835
308.15 K, 101 kPa, x1 = 0.0564	2.019
308.15 K, 101 kPa, x1 = 0.1026	2.039
308.15 K, 101 kPa, x1 = 0.1884	2.067
308.15 K, 101 kPa, x1 = 0.3027	3.253
308.15 K, 101 kPa, x1 = 0.4056	3.955
308.15 K, 101 kPa, x1 = 0.4941	4.933
308.15 K, 101 kPa, x1 = 0.6024	6.647
308.15 K, 101 kPa, x1 = 0.6843	8.612
308.15 K, 101 kPa, x1 = 0.7939	12.61
308.15 K, 101 kPa, x1 = 0.888	17.95
308.15 K, 101 kPa, x1 = 0.9396	22.95
308.15 K, 101 kPa, x1 = 0.9764	27.1
308.15 K, 101.33 kPa, x2 = 0.05493	22.04
308.15 K, 101.33 kPa, x2 = 0.1102	17.39
308.15 K, 101.33 kPa, x2 = 0.1762	13.32
308.15 K, 101.33 kPa, x2 = 0.2999	8.57
308.15 K, 101.33 kPa, x2 = 0.3972	6.231
308.15 K, 101.33 kPa, x2 = 0.4977	4.671
308.15 K, 101.33 kPa, x2 = 0.6026	3.551
308.15 K, 101.33 kPa, x2 = 0.6974	2.829
308.15 K, 101.33 kPa, x2 = 0.8019	2.225
308.15 K, 101.33 kPa, x2 = 0.9106	1.745
308.15 K, 101.33 kPa, x2 = 0.9521	1.595
318.15 K, 101.33 kPa, x2 = 0.05598	13.51
318.15 K, 101.33 kPa, x2 = 0.1062	11.16
318.15 K, 101.33 kPa, x2 = 0.2044	7.948
318.15 K, 101.33 kPa, x2 = 0.2997	5.996
318.15 K, 101.33 kPa, x2 = 0.4011	4.469
318.15 K, 101.33 kPa, x2 = 0.4992	3.505
318.15 K, 101.33 kPa, x2 = 0.6003	2.789
318.15 K, 101.33 kPa, x2 = 0.702	2.252
318.15 K, 101.33 kPa, x2 = 0.8041	1.83
318.15 K, 101.33 kPa, x2 = 0.9081	1.49
318.15 K, 101.33 kPa, x2 = 0.951	1.373

Nc1ccccc1 + COCCO
[1], 303.15 K, 101 kPa
Conditions	viscosity [mPa·s]
x1 = 0.0881	2.156
x1 = 0.1786	2.351
x1 = 0.2716	2.555
x1 = 0.3671	2.757
x1 = 0.4652	2.955
x1 = 0.5661	3.129
x1 = 0.67	3.284
x1 = 0.7768	3.437
x1 = 0.8867	3.591

CCNCC + c1ccccc1
viscosity, [1], 101.33 kPa
Conditions	x1 = 0.2	x1 = 0.4	x1 = 0.5	x1 = 0.6	x1 = 0.8
293.15 K	0.522 mPa·s and 0.522 mPa·s	0.44 mPa·s	0.411 mPa·s and 0.411 mPa·s	0.387 mPa·s	0.349 mPa·s
303.15 K	0.463 mPa·s	0.393 mPa·s	0.367 mPa·s	0.348 mPa·s	0.314 mPa·s
308.15 K	0.438 mPa·s and 0.438 mPa·s	0.374 mPa·s	0.35 mPa·s and 0.35 mPa·s	0.333 mPa·s	0.298 mPa·s

CCNCC + CC(C)O
viscosity [mPa·s], [1], 100 kPa
Conditions	293.15 K	298.15 K	303.15 K	308.15 K	313.15 K	318.15 K	323.15 K
x1 = 0.0215	2.3	1.99	1.72	1.49	1.31	1.15	1.01
x1 = 0.0807	1.99	1.74	1.51	1.31	1.152	1.02	0.9
x1 = 0.1595	1.63	1.44	1.256	1.09	0.97	0.86	0.78
x1 = 0.2401	1.33	1.187	1.05	0.924	0.82	0.732	0.67
x1 = 0.3491	1.02	0.91	0.806	0.72	0.64	0.58	0.54
x1 = 0.4399	0.84	0.75	0.671	0.598	0.54	0.491	0.46
x1 = 0.5598	0.65	0.58	0.527	0.48	0.435	0.396	0.37
x1 = 0.6501	0.551	0.5	0.455	0.416	0.376	0.345	0.32
x1 = 0.7395	0.48	0.43	0.39	0.36	0.33	0.304	0.283
x1 = 0.8496	0.41	0.376	0.343	0.319	0.296	0.271	0.251
x1 = 0.94	0.36	0.336	0.315	0.293	0.274	0.257	0.243
x2 = 0.0137	0.33	0.314	0.298	0.282	0.267	0.251	0.238

COCCOCCOCCOC + ClC(Cl)Cl
[1], 298.15 K, 101 kPa
Conditions	viscosity [mPa·s]
x1 = 0.0083	0.569
x1 = 0.0278	0.622
x1 = 0.0552	0.702
x1 = 0.0851	0.795
x1 = 0.1347	0.962
x1 = 0.195	1.16
x1 = 0.241	1.295
x1 = 0.2903	1.425
x1 = 0.3545	1.559
x1 = 0.4174	1.678
x1 = 0.4686	1.717
x1 = 0.5236	1.766
x1 = 0.5853	1.809
x1 = 0.631	1.836
x1 = 0.708	1.868
x1 = 0.7445	1.893
x1 = 0.8071	1.901
x1 = 0.8627	1.918
x1 = 0.9174	1.934
x2 = 0.0147	1.949

Nc1ccccc1 + O=[N+]([O-])c1ccccc1
[1], 298.15 K, 101 kPa
Conditions	viscosity [mPa·s]
x2 = 0.1216	3.163
x2 = 0.2269	2.741
x2 = 0.4	2.328
x2 = 0.5602	2.082
x2 = 0.6878	1.949
x2 = 0.8353	1.889
x2 = 0.9171	1.836

COCCOCCOCCOC + CCCCCCO
[1], 101 kPa
Conditions	viscosity [mPa·s]
293.15 K, x1 = 0.04492	4.503
293.15 K, x1 = 0.09537	3.827
293.15 K, x1 = 0.1973	3.104
293.15 K, x1 = 0.2976	2.686
293.15 K, x1 = 0.4067	2.427
293.15 K, x1 = 0.5095	2.269
293.15 K, x1 = 0.6012	2.199
293.15 K, x1 = 0.6895	2.144
293.15 K, x1 = 0.7928	2.134
293.15 K, x1 = 0.8972	2.135
293.15 K, x1 = 0.9607	2.158
303.15 K, x1 = 0.04662	3.285
303.15 K, x1 = 0.09419	2.854
303.15 K, x1 = 0.2001	2.327
303.15 K, x1 = 0.2995	2.056
303.15 K, x1 = 0.4075	1.869
303.15 K, x1 = 0.5134	1.747
303.15 K, x1 = 0.5831	1.711
303.15 K, x1 = 0.6929	1.697
303.15 K, x1 = 0.7889	1.712
303.15 K, x1 = 0.9161	1.735
303.15 K, x1 = 0.9401	1.753
313.15 K, x1 = 0.04436	2.565
313.15 K, x1 = 0.09283	2.292
313.15 K, x1 = 0.2014	1.894
313.15 K, x1 = 0.2982	1.701
313.15 K, x1 = 0.41	1.56
313.15 K, x1 = 0.5102	1.491
313.15 K, x1 = 0.601	1.454
313.15 K, x1 = 0.6974	1.435
313.15 K, x1 = 0.8008	1.435
313.15 K, x1 = 0.8996	1.453
313.15 K, x1 = 0.9626	1.462
